Measurements published in PubChem BioAssay AID248 (DTP/NCI, 2004).
Where “and” joins values, the source holds several entries; their conditions need not be identical. Equal values may be shown once. Inconclusive results and toxic doses are left out. No stated cut-off is given here; in the data, active means T/C of 150% or more; inactive means T/C below 125%.

Test system: L1210 leukemia ip in BDF1 mice, survival T/C
Assay: NCI In Vivo Anticancer Drug Screen. Data for tumor model L1210 Leukemia (intraperitoneal) in B6D2F1 (BDF1) mice
Details: higher = longer survival
In short: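 Tumor was transplanted into mice, which were then dosed with test compound or vehicle alone. Survival was recorded for each group, and the treated figure was expressed relative to the control figure.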

[1] = endpoint: mean survival time, dose: 100.0 mg/kg/injection, schedule: Q04DX003 (ip), vehicle: saline
[2] = endpoint: mean survival time, dose: 200.0 mg/kg/injection, schedule: Q04DX003 (ip), vehicle: saline
[3] = endpoint: mean survival time, dose: 400.0 mg/kg/injection, schedule: Q04DX003 (ip), vehicle: saline
[4] = endpoint: mean survival time, dose: 100.0 mg/kg/injection, schedule: Q01DX009 (ip), vehicle: Klucel (hydroxypropylcellulose) (HPC)
[5] = endpoint: mean survival time, dose: 100.0 mg/kg/injection, schedule: Q04DX003 (ip), vehicle: Klucel (hydroxypropylcellulose) (HPC)
[6] = endpoint: mean survival time, dose: 200.0 mg/kg/injection, schedule: Q01DX009 (ip), vehicle: Klucel (hydroxypropylcellulose) (HPC)
[7] = endpoint: mean survival time, dose: 200.0 mg/kg/injection, schedule: Q04DX003 (ip), vehicle: Klucel (hydroxypropylcellulose) (HPC)
[8] = endpoint: mean survival time, dose: 400.0 mg/kg/injection, schedule: Q04DX003 (ip), vehicle: Klucel (hydroxypropylcellulose) (HPC)
[9] = endpoint: mean survival time, dose: 100.0 mg/kg/injection, schedule: Q01DX009 (ip), vehicle: saline with Tween-80
[10] = endpoint: mean survival time, dose: 200.0 mg/kg/injection, schedule: Q01DX009 (ip), vehicle: saline with Tween-80
[11] = endpoint: mean survival time, dose: 400.0 mg/kg/injection, schedule: Q01DX009 (ip), vehicle: saline with Tween-80
[12] = endpoint: mean survival time, dose: 100.0 mg/kg/injection, schedule: Q01DX001 (ip), vehicle: other
[13] = endpoint: mean survival time, dose: 200.0 mg/kg/injection, schedule: Q01DX001 (ip), vehicle: other
[14] = endpoint: mean survival time, dose: 400.0 mg/kg/injection, schedule: Q01DX001 (ip), vehicle: other

Measured: T/C

COC(=O)Nc1cccc(-c2nc3ccc(NC(=O)OC)cc3c(=O)n2-c2ccccc2)c1
inactive: endpoint: mean survival time, dose: 6.25 mg/kg/injection, schedule: Q01DX009 (ip), vehicle: Klucel (hydroxypropylcellulose) (HPC) 94 % of control and 98 % of control | endpoint: mean survival time, dose: 12.5 mg/kg/injection, schedule: Q01DX009 (ip), vehicle: Klucel (hydroxypropylcellulose) (HPC) 97 % of control and 101 % of control | endpoint: mean survival time, dose: 25.0 mg/kg/injection, schedule: Q01DX009 (ip), vehicle: Klucel (hydroxypropylcellulose) (HPC) 102 % of control and 88 % of control | endpoint: mean survival time, dose: 25.0 mg/kg/injection, schedule: Q01DX009 (ip), vehicle: other 113 % of control | endpoint: mean survival time, dose: 25.0 mg/kg/injection, schedule: Q01DX009 (oral), vehicle: Klucel (hydroxypropylcellulose) (HPC) 93 % of control and 97 % of control | endpoint: mean survival time, dose: 25.0 mg/kg/injection, schedule: Q04DX003 (ip), vehicle: saline 97 % of control | endpoint: mean survival time, dose: 50.0 mg/kg/injection, schedule: Q01DX009 (ip), vehicle: Klucel (hydroxypropylcellulose) (HPC) 120 % of control | endpoint: mean survival time, dose: 50.0 mg/kg/injection, schedule: Q01DX009 (ip), vehicle: other 114 % of control | endpoint: mean survival time, dose: 50.0 mg/kg/injection, schedule: Q01DX009 (oral), vehicle: Klucel (hydroxypropylcellulose) (HPC) 102 % of control | endpoint: mean survival time, dose: 50.0 mg/kg/injection, schedule: Q04DX003 (ip), vehicle: saline 101 % of control | endpoint: mean survival time, dose: 100.0 mg/kg/injection, schedule: Q01DX009 (oral), vehicle: Klucel (hydroxypropylcellulose) (HPC) 97 % of control and 101 % of control | [1] 103 % of control and 107 % of control | endpoint: mean survival time, dose: 200.0 mg/kg/injection, schedule: Q01DX009 (oral), vehicle: Klucel (hydroxypropylcellulose) (HPC) 104 % of control and 121 % of control | endpoint: mean survival time, dose: 200.0 mg/kg/injection, schedule: Q01DX009 (oral), vehicle: other 105 % of control | [2] 110 % of control | endpoint: mean survival time, dose: 300.0 mg/kg/injection, schedule: Q01DX009 (oral), vehicle: other 102 % of control | endpoint: mean survival time, dose: 400.0 mg/kg/injection, schedule: Q01DX009 (oral), vehicle: Klucel (hydroxypropylcellulose) (HPC) 116 % of control and 121 % of control | endpoint: mean survival time, dose: 400.0 mg/kg/injection, schedule: Q01DX009 (oral), vehicle: other 116 % of control | [3] 110 % of control | endpoint: mean survival time, dose: 500.0 mg/kg/injection, schedule: Q01DX009 (oral), vehicle: other 102 % of control | endpoint: mean survival time, dose: 800.0 mg/kg/injection, schedule: Q01DX009 (oral), vehicle: Klucel (hydroxypropylcellulose) (HPC) 119 % of control and 120 % of control | endpoint: median survival time, dose: 25.0 mg/kg/injection, schedule: Q01DX009 (oral), vehicle: saline 103 % of control | endpoint: median survival time, dose: 50.0 mg/kg/injection, schedule: Q01DX009 (oral), vehicle: saline 102 % of control | endpoint: median survival time, dose: 100.0 mg/kg/injection, schedule: Q01DX009 (oral), vehicle: saline 104 % of control | endpoint: median survival time, dose: 200.0 mg/kg/injection, schedule: Q01DX009 (oral), vehicle: saline 104 % of control | endpoint: median survival time, dose: 200.0 mg/kg/injection, schedule: Q04DX003 (ip), vehicle: other 119 % of control | endpoint: median survival time, dose: 200.0 mg/kg/injection, schedule: Q04DX003 (oral), vehicle: saline 113 % of control | endpoint: median survival time, dose: 300.0 mg/kg/injection, schedule: Q04DX003 (oral), vehicle: saline 123 % of control | endpoint: median survival time, dose: 400.0 mg/kg/injection, schedule: Q04DX003 (oral), vehicle: saline 112 % of control
active: endpoint: median survival time, dose: 100.0 mg/kg/injection, schedule: Q04DX003 (ip), vehicle: other 158 % of control | endpoint: median survival time, dose: 100.0 mg/kg/injection, schedule: Q04DX003 (ip), vehicle: saline 185 % of control | endpoint: median survival time, dose: 200.0 mg/kg/injection, schedule: Q04DX003 (ip), vehicle: Klucel (hydroxypropylcellulose) (HPC) 158 % of control | endpoint: median survival time, dose: 200.0 mg/kg/injection, schedule: Q04DX003 (ip), vehicle: saline with Tween-80 154 % of control | endpoint: median survival time, dose: 400.0 mg/kg/injection, schedule: Q04DX003 (ip), vehicle: Klucel (hydroxypropylcellulose) (HPC) 178 % of control | endpoint: median survival time, dose: 400.0 mg/kg/injection, schedule: Q04DX003 (ip), vehicle: saline with Tween-80 190 % of control

Cc1cc(NC(=O)/C=C/c2ccc([N+](=O)[O-])cc2Cl)ccc1S(=O)(=O)F
inactive: endpoint: mean survival time, dose: 100.0 mg/kg/injection, schedule: Q01DX001 (ip), vehicle: saline with Tween-80 92 % of control | endpoint: mean survival time, dose: 200.0 mg/kg/injection, schedule: Q01DX001 (ip), vehicle: saline with Tween-80 93 % of control | endpoint: mean survival time, dose: 400.0 mg/kg/injection, schedule: Q01DX001 (ip), vehicle: saline with Tween-80 92 % of control

Cc1ccc(C)c(NC(=O)Oc2ccccc2F)c1
inactive: [4] 101 % of control | [5] 98 % of control | [6] 91 % of control | [7] 113 % of control | [8] 101 % of control

O=C(N/N=C/c1c(O)ccc2ccccc12)c1ccccc1
inactive: [4] 113 % of control | [6] 103 % of control | endpoint: mean survival time, dose: 400.0 mg/kg/injection, schedule: Q01DX009 (ip), vehicle: Klucel (hydroxypropylcellulose) (HPC) 108 % of control

CC(O)NC(=O)C1CC2c3cccc4[nH]cc(c34)CC2N(C)C1 (centres undefined)
inactive: [5] 100 % of control | [7] 97 % of control | [8] 105 % of control

CC1(C)C=C2OC(=O)CCC2(C)CC1 (centres undefined)
inactive: endpoint: mean survival time, dose: 100.0 mg/kg/injection, schedule: Q01DX001 (ip), vehicle: Klucel (hydroxypropylcellulose) (HPC) 106 % of control | [9] 109 % of control | endpoint: mean survival time, dose: 200.0 mg/kg/injection, schedule: Q01DX001 (ip), vehicle: Klucel (hydroxypropylcellulose) (HPC) 106 % of control | [10] 112 % of control | endpoint: mean survival time, dose: 400.0 mg/kg/injection, schedule: Q01DX001 (ip), vehicle: Klucel (hydroxypropylcellulose) (HPC) 96 % of control | [11] 107 % of control

O=C(NO)N/N=C/c1ccccc1
inactive: [12] 104 % of control | [9] 104 % of control | endpoint: mean survival time, dose: 100.0 mg/kg/injection, schedule: Q04DX003 (ip), vehicle: other 113 % of control | [13] 98 % of control | [10] 107 % of control | endpoint: mean survival time, dose: 200.0 mg/kg/injection, schedule: Q04DX003 (ip), vehicle: other 95 % of control | [14] 98 % of control | [11] 110 % of control | endpoint: mean survival time, dose: 400.0 mg/kg/injection, schedule: Q04DX003 (ip), vehicle: other 93 % of control

CS(=O)(=O)NC(=O)NCCCl
inactive: [12] 95 % of control | [13] 95 % of control | [14] 98 % of control

CCOc1cc(/C=N\Nc2nnc(C)n2N)c(C)cc1N(CCCl)CCCl
inactive: endpoint: mean survival time, dose: 10.5 mg/kg/injection, schedule: Q01DX015 (ip), vehicle: carboxymethylcellulose (CMC) 119 % of control | endpoint: mean survival time, dose: 18.0 mg/kg/injection, schedule: Q01DX015 (ip), vehicle: carboxymethylcellulose (CMC) 109 % of control | endpoint: mean survival time, dose: 44.0 mg/kg/injection, schedule: Q01DX001 (ip), vehicle: carboxymethylcellulose (CMC) 110 % of control | endpoint: mean survival time, dose: 50.0 mg/kg/injection, schedule: Q01DX001 (ip), vehicle: carboxymethylcellulose (CMC) 120 % of control | endpoint: mean survival time, dose: 67.0 mg/kg/injection, schedule: Q01DX001 (ip), vehicle: carboxymethylcellulose (CMC) 110 % of control and 116 % of control | endpoint: mean survival time, dose: 100.0 mg/kg/injection, schedule: Q01DX001 (ip), vehicle: carboxymethylcellulose (CMC) 111 % of control and 124 % of control | endpoint: mean survival time, dose: 150.0 mg/kg/injection, schedule: Q01DX001 (ip), vehicle: carboxymethylcellulose (CMC) 105 % of control and 90 % of control | endpoint: mean survival time, dose: 200.0 mg/kg/injection, schedule: Q01DX001 (ip), vehicle: carboxymethylcellulose (CMC) 105 % of control

CC1(C)OC(=O)C(C#N)C1c1ccc(Cl)cc1 (centres undefined)
inactive: endpoint: mean survival time, dose: 100.0 mg/kg/injection, schedule: Q01DX001 (ip), vehicle: saline 101 % of control | endpoint: mean survival time, dose: 200.0 mg/kg/injection, schedule: Q01DX001 (ip), vehicle: saline 95 % of control | endpoint: mean survival time, dose: 400.0 mg/kg/injection, schedule: Q01DX001 (ip), vehicle: saline 95 % of control

CCCCCCC[CH2][Sn]1([CH2]CCCCCCC)[O]OC(c2ccccc2)[O]1 (centres undefined)
inactive: endpoint: mean survival time, dose: 6.25 mg/kg/injection, schedule: Q04DX002 (ip), vehicle: saline with Tween-80 102 % of control | endpoint: mean survival time, dose: 12.5 mg/kg/injection, schedule: Q04DX002 (ip), vehicle: saline with Tween-80 98 % of control | endpoint: mean survival time, dose: 25.0 mg/kg/injection, schedule: Q04DX002 (ip), vehicle: saline with Tween-80 91 % of control

CCOC(=O)C1CCCCC1
inactive: [1] 102 % of control | [2] 98 % of control | [3] 91 % of control
